According to US6685617B1, “Inhibitors of α4β1 mediated cell adhesion” (Pharmacia & Upjohn Company, priority 1998, dated 2004):

Key:
[1] = target: T1, α4β1 integrin (Jurkat T-cell adhesion to IL-1 stimulated endothelial cell monolayers) (Homo sapiens, UniProt P05556+P13612); experiment: Jurkat-endothelial cell adhesion assay (Jurkat EC); assay type: cell-based; details: Jurkat cells on IL-1 stimulated human umbilical vein endothelial cells; read-out: JK/EC (Jurkat EC Assay IC50 value range)
T1 construct: a T-cell line, Jurkat, known to express the α4β1 integrin; host or cells: Jurkat T-cell line
T1 sequence (P13612 34-1032): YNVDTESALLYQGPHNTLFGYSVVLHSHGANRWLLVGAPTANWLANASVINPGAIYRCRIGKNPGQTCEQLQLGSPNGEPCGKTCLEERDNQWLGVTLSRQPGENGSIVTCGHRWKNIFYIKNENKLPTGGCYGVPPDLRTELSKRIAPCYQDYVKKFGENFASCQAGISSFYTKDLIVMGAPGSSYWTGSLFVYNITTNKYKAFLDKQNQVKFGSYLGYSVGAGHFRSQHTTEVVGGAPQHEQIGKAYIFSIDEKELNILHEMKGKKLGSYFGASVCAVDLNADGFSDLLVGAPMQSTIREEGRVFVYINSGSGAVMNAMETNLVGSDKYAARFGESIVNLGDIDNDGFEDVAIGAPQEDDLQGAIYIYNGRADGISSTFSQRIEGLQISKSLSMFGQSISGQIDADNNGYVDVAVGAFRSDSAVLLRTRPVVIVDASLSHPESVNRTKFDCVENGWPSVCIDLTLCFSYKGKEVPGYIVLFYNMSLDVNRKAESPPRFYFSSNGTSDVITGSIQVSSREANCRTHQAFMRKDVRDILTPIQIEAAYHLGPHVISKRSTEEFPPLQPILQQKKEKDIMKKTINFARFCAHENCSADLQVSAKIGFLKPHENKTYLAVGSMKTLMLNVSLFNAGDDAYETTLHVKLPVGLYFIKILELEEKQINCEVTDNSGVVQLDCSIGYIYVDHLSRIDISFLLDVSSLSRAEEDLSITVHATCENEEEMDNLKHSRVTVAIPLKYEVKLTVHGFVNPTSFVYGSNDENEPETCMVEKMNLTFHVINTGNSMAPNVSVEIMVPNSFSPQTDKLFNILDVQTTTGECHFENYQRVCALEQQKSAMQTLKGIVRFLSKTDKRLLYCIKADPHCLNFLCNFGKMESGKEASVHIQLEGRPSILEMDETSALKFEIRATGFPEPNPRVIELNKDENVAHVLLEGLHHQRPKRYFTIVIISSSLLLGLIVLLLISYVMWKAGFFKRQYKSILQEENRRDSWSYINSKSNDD
T1 sequence (P05556 21-798): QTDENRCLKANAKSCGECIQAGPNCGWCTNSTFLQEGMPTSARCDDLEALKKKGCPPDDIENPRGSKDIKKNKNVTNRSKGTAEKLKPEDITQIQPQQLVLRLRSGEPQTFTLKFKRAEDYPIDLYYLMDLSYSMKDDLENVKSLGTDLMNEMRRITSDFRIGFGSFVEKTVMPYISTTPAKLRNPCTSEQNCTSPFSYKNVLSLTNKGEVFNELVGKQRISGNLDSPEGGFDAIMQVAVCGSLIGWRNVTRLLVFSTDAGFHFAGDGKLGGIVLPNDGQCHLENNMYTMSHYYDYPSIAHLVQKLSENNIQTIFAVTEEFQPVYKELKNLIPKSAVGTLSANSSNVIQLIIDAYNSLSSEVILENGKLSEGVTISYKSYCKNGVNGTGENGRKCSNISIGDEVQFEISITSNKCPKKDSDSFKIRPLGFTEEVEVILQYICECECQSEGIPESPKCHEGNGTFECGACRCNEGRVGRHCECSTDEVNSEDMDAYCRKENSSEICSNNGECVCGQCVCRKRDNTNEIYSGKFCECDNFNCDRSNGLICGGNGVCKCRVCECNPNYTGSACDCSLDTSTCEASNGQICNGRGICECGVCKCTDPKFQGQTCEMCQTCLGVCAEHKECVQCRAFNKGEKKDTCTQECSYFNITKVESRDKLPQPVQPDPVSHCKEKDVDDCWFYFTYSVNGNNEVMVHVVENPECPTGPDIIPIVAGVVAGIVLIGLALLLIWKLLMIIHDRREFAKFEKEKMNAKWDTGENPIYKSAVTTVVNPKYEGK
Protocol: Jurkat-endothelial Cell Adhesion Assay:
The following assay established the activity of the present compounds in inhibiting β1-mediated cell adhesion in a representative in vitro system. This assay measures the adhesive interactions of a T-cell line, Jurkat, known to express the α4β1 integrin, to endothelial monolayers in the presence of test compounds. The test compounds were added in increasing concentrations to T-cells and then the T-cell compound mixture was added to IL-1 stimulated endothelial cell monolayers. The plates were incubated, washed and the percentage of attached cells was quantitated.
Human umbilical vein endothelial cells were purchased from Clonetics (San Diego, Calif.) at passage number 2. The cells were grown on 0.5% porcine skin gelatin pre-coated flasks (Sigma, St. Louis Mo.) in EGM-UV media (Clonetics, San Diego, Calif.) supplemented with 10% fetal bovine serum. Cells are refed every 2-3 days reaching confluence by day 4 to 6. […] The endothelial cells are not used following passage 6.
The T-cell line Jurkat was obtained from American Type Tissue Culture Collection (Rockville, Md.) and the cells were cultured in RPMI containing 10% fetal calf serum. The cells were washed twice in Hank's Balanced Salt Solution (HBSS) and resuspended in Dulbecco's Minimal Eagle's Media (DMEM) containing 2.5 mg/ml Human Serum Albumin (HSA). Jurkat cells (1×10^6 cells/ml) were stained with 10 ng/ml BCECF-AM (Molecular Probes, Eugene, Oreg.)) in HBSS without phenol red. The cells were loaded with BCECF for 60 minutes in the dark at 370C, washed 2 times, and resuspended in DMEM-HSA solution.
Confluent endothelial monolayers, grown in 96-well tissue culture plates, were stimulated for 4 hr. at 37° C. with 0.1 ng/ml (˜50 U/ml) recombinant IL-1 (Amgen, Thousand Oaks, Calif.). Following this incubation, the monolayers were washed twice with HBSS and 0.1 ml of DMEM−HSA solution was added. Jurkat cells (5×10^5 cells) were combined with the appropriate concentration of the test compound and 0.1 ml of the Jurkat cell-compound mixture was added to the endothelial cell monolayers. Generally, 100, 20, 5 and 1.25 μM compound concentrations were tested. […] The plates were placed on ice for 5 minutes to allow for Jurkat cell settling and the plates were incubated at 37° C. for 20 minutes. Following this incubation, the monolayers were washed twice with PBS containing 1 mM calcium chloride and 1 mM magnesium chloride and the plates were read using a Millipore Cytofluor 2300 (Marlboro, Mass.). Fluorescence in each well was measured as Arbitrary Fluorescence Units and percent adhesion in the absence of compound was adjusted to 100% and the % adhesion in the presence of compound was calculated. Monolayers were also fixed in 3% paraformaldehyde and evaluated microscopically to verify the adhesion. This procedure is a modification of a previously published method (Cardarelli et al., J. Biol. Chem. 269:18668-18673 (1994)).

[2] = target: T2, α4β1 integrin (Jurkat cell adhesion to immobilized CS-1 derived peptide CLHPGEILDVPST) (Homo sapiens, UniProt P05556+P13612); experiment: Jurkat-CS-1 assay; assay type: cell-based; details: Jurkat cells on CS-1 peptide coated plates; read-out: JK/CS-1 (Jurkat CS-1 Assay IC50 value range)
T2 construct: 100 μl of Jurkat cells (2.5×10^6 cells/ml) in DMEM plus BSA; host or cells: Jurkat T-cell line
T2 sequence (P13612 34-1032): as the sequence (P13612 34-1032) above
T2 sequence (P05556 21-798): as the sequence (P05556 21-798) above
Protocol: The CS-1 derived peptide, CLHPGEILDVPST, and the scrambled control peptide, CLHGPIELVSDPT, were synthesized on a Beckman 990 synthesizer using t-Boc methodology. The peptides were immobilized onto microtiter plates using the heterobifunctional crosslinker 3-(2-pyridyldithio)propionic acid N-hydroxysuccinimide ester (SPDP) as reported by Pierschbacher et al., Proc. Natl. Acad. USA, 80:1224-1227 (1983). Microtiter plates were coated with 20 μg/ml HSA for 2 hr. at room temperature, washed once with PBS and derivatized with 10 μg/ml SPDP for 1 hr. After washing, 100 μl of a 100 μg/ml cysteine containing peptide solution which had been recently dissolved was added to the wells and allowed to crosslink to the plates overnight at 4° C. Unbound peptide was removed from plates by washing with PBS. To block non-reacted sites, the plates are coated with 100 μl of a 2.5 mg/ml BSA solution in PBS for 1 hr. at 37° C. 100 μl of Jurkat cells (2.5×10^6 cells/ml) in DMEM plus BSA (2.5 mg/ml) was mixed with an appropriate concentration of the compound to be tested and the mixture was added to peptide coated dishes and incubated for 1 hr. at 37° C. Generally 100, 20, 5 and 1.25 μM concentrations of the compound were tested.
Following this incubation the plates were washed once with PBS and the attached cells were fixed with 3% paraformaldehyde in PBS and stained with 0.5% toluidine blue in 3.7% formaldehyde. The cells were stained overnight at room temperature and the optical density at 590 nm of toluidine blue stained cells was determined using a vertical pathway spectrophotometer to quantitate attachment (VMAX Kinetic Microplate Reader, Molecular Devices, Menlo Park, Calif.). This procedure is a modification of a previously published method (Cardarelli et al, J. Biol. Chem., 269:18668-18673 (1994) and Cardarelli et al, Proc. Natl. Acad. Sci. USA, 83:2647-2651 (1986)).

Structure (SMILES) | IC50 [1] [nM] | IC50 [2] [nM]
COC(=O)[C@H](Cc1ccc(NC(=O)c2c(Cl)cccc2Cl)cc1)NC(=O)[C@H]1CSCN1C(=O)OCCN1CCOCC1 (relative stereo) [Example 24, [S-(R*,R*)]-4-[[[1-[[4-[(2,6-Dichlorobenzoyl)amino]phenyl]methyl]-2-methoxy-2-oxoethyl]amino]carbonyl]-3-thiazolidinecarboxylic Acid 3-[2-(4-Morpholinyl)ethyl]ester] | 250 to 1000 | 50 to 750
O=C(Nc1ccc(C[C@H](NC(=O)[C@H]2CSCN2C(=O)OCCN2CCOCC2)C(=O)O)cc1)c1c(Cl)cccc1Cl (relative stereo) [Example 25, [S-(R*,R*)]-4-[[[1-Carboxy-2-[-4-[(2,6-dichlorobenzoyl)amino]phenyl]ethyl]amino]carbonyl]-3-thiazolidinecarboxylic Acid 3-[2-(4-Morpholinyl)ethyl]ester] | ≤ 250 | ≤ 50
COC(=O)[C@H](Cc1ccc(NC(=O)c2c(Cl)cccc2Cl)cc1)NC(=O)[C@@H]1N(C(=O)OC(C)(C)C)CSC1(C)C (relative stereo) [Example 28, [S-(R*,R*)]-4-[[[1-[[4-[(2,6-Dichlorobenzoyl)amino]phenyl]methyl]-2-methoxy-2-oxoethyl]amino]carbonyl]-5,5-dimethyl-3-thiazolidinecarboxylic Acid 3-(1,1-Dimethylethyl)ester] | ≥ 1000 | ≥ 750
CC(C)(C)OC(=O)N1CSC(C)(C)[C@@H]1C(=O)N[C@@H](Cc1ccc(NC(=O)c2c(Cl)cccc2Cl)cc1)C(=O)O (relative stereo) [Example 29, [S-(R*,R*)]-4-[[[1-Carboxy-2-[4-[(2,6-dichlorobenzoyl)amino]phenyl]ethyl]amino]carbonyl]-5,5-dimethyl-3-thiazolidinecarboxylic Acid 3-(1,1-Dimethylethyl)ester] | 250 to 1000 | 50 to 750
CCOC(=O)N1CSC(C)(C)[C@@H]1C(=O)N[C@@H](Cc1ccc(NC(=O)c2c(Cl)cccc2Cl)cc1)C(=O)OC (relative stereo) [Example 30, [S-(R*,R*)]-4-[[[1-[[4-[(2,6-Dichlorobenzoyl)amino]phenyl]methyl]-2-methoxy-2-oxoethyl)amino]carbonyl]-5,5-dimethyl-3-thiazolidinecarboxylic Acid 3-Ethyl Ester] | ≥ 1000 | 50 to 750
CCOC(=O)N1CSC(C)(C)[C@@H]1C(=O)N[C@@H](Cc1ccc(NC(=O)c2c(Cl)cccc2Cl)cc1)C(=O)O (relative stereo) [Example 31, [S-(R*,R*)]-4-[[[1-Carboxy-2-[4-[(2,6-dichlorobenzoyl)amino]phenyl]ethyl]amino]carbonyl]-5,5-dimethyl-3-thiazolidinecarboxylic Acid 3-Ethyl Ester] | ≤ 250 | ≤ 50
COC(=O)[C@H](Cc1ccc(OCc2c(Cl)cccc2Cl)cc1)NC(=O)[C@H]1CSCN1C(=O)OC(C)(C)C (relative stereo) [Example 32, [S-(R*,R*)]-4-[[[1-[4-[(2,6-Dichlorophenyl)methoxy]phenyl]methyl]-2-methoxy-2-oxoethyl]amino]carbonyl]-3-thiazolidinecarboxylic Acid 3-(1,1-Dimethylethyl)ester] | ≥ 1000 | ≥ 750
CC(C)(C)OC(=O)N1CSC[C@@H]1C(=O)N[C@@H](Cc1ccc(OCc2c(Cl)cccc2Cl)cc1)C(=O)O (relative stereo) [Example 33, [S-(R*,R*)]-4-[[[1-Carboxy-2-[4-[(2,6-dichlorophenyl)methoxy]phenyl]ethyl]amino]carbonyl]-3-thiazolidinecarboxylic Acid 3-(1,1-Dimethylethyl)ester] | ≤ 250 | 50 to 750
CCOC(=O)N1CSC[C@@H]1C(=O)N[C@@H](Cc1ccc(OCc2c(Cl)cccc2Cl)cc1)C(=O)OC (relative stereo) [Example 34, [S-(R*,R*)]-4-[[[1-[4-[(2,6-Dichlorophenyl)methoxy]phenylmethyl]-2-methoxy-2-oxoethyl]amino]carbonyl]-3-thiazolidinecarboxylic Acid 3-Ethyl Ester] | ≥ 1000 | 50 to 750
CCOC(=O)N1CSC[C@@H]1C(=O)N[C@@H](Cc1ccc(OCc2c(Cl)cccc2Cl)cc1)C(=O)O (relative stereo) [Example 35, [S-(R*,R*)]-4-[[[1-Carboxy-2-[4-[(2,6-dichlorophenyl)methoxy]phenyl]ethyl]amino]carbonyl]-3-thiazolidinecarboxylic Acid 3-Ethyl Ester] | 250 to 1000 | 50 to 750
O=C(O)[C@H](Cc1ccc(OCc2c(Cl)cccc2Cl)cc1)NC(=O)[C@H]1CSCN1C(=O)OCCN1CCOCC1 (relative stereo) [Example 37] | ≤ 250 | ≤ 50
CC(C)(C)OC(=O)N1CSC[C@H]1C(=O)N[C@@H](Cc1ccc(OCc2c(Cl)cccc2Cl)cc1)C(=O)O (relative stereo) [Example 41, [R-(R*,S*)]-4-[[[1-Carboxy-2-[4-[(2,6-dichlorophenyl)methoxy]phenyl]ethyl]amino]carbonyl]-3-thiazolidinecarboxylic Acid 3-(1,1-Dimethylethyl)ester] | ≥ 1000 | ≥ 750
COC(=O)CCCC(=O)N1CSC[C@@H]1C(=O)N[C@@H](Cc1ccc(NC(=O)c2c(Cl)cccc2Cl)cc1)C(=O)OC (relative stereo) [Example 59, [S-(R*,R*)]-4-[[[1-[4-[(2,6-dichlorobenzoyl)amino]phenyl]methyl]-2-methoxy-2-oxoethyl]amino]carbonyl]-δ-oxo-3-thiazolidinepentanoic Acid 3-Methyl Ester] | ≥ 1000 | 50 to 750
O=C(O)CCCC(=O)N1CSC[C@@H]1C(=O)N[C@@H](Cc1ccc(NC(=O)c2c(Cl)cccc2Cl)cc1)C(=O)O (relative stereo) [Example 60, [S-(R*,R*)]-4-[[[1-Carboxy-2-[4-[(2,6-dichlorobenzoyl)amino]phenyl]ethyl]amino]carbonyl]-δ-oxo-3-thiazolidinepentanoic Acid] | ≤ 250 | ≤ 50
CC1(C)SCN(C(=O)CCC(=O)O)[C@H]1C(=O)N[C@@H](Cc1ccc(NC(=O)c2c(Cl)cccc2Cl)cc1)C(=O)O (relative stereo) [Example 63, [S-(R*,R*)]-4-[[[1-Carboxy-2-[4-[(2,6-dichlorobenzoyl)amino]phenyl]ethyl]amino]carbonyl]-5,5-dimethyl-δ-oxo-3-thiazolidinebutanoic Acid] | ≤ 250 | ≤ 50
